Test results reported in PubChem BioAssay (NCI).
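GI50 = concentration required for 50% inhibition of growth. The concentration for full growth arrest is given as TGI.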

Columns and labels:
Experiment in all cases: NCI tumour cell line growth inhibition, 384-well format
[1] = system: RXF 393 renal
[2] = system: A498 renal
[3] = system: HCT-116 colon
[4] = system: K-562 leukemia
[5] = system: MDA-MB-468 breast
[6] = system: HCT-15 colon
[7] = system: SK-MEL-2 melanoma
[8] = system: T-47D breast
[9] = system: U251 glioblastoma
[10] = system: MCF7 breast
[11] = system: SF-539 CNS
[12] = system: DU-145 prostate
[13] = system: SNB-19 CNS
[14] = system: HOP-92 NSCLC
[15] = system: NCI-H322M lung
[16] = system: M14 melanoma
[17] = system: SK-MEL-5 melanoma
[18] = system: NCI-H460 NSCLC
[19] = system: HCC-2998 colon
[20] = system: OVCAR-8 ovarian
[21] = system: NCI-H23 lung
[22] = system: HS 578T breast
[23] = system: RPMI-8226 leukemia
[24] = system: SR leukemia
[25] = system: SK-OV-3 ovarian
[26] = system: MALME-3M melanoma
[27] = system: SW-620 colon
[28] = system: 786-0 renal
[29] = system: UACC-257 melanoma
[30] = system: PC-3 prostate
[31] = system: UO-31 renal
[32] = system: IGROV1 ovarian
[33] = system: SNB-75 CNS
[34] = system: HOP-62 NSCLC
[35] = system: OVCAR-4 ovarian
[36] = system: NCI/ADR-RES ovarian
[37] = system: NCI-H226 lung
[38] = system: UACC-62 melanoma
[39] = system: OVCAR-3 ovarian
[40] = system: LOX IMVI melanoma
[41] = system: OVCAR-5 ovarian
[42] = system: CAKI-1 renal
[43] = system: CCRF-CEM leukemia
[44] = system: BT-549 breast
[45] = system: HL-60(TB) leukemia
[46] = system: SF-295 CNS
[47] = system: MDA-MB-435 melanoma

## COCCOc1cnc2ccn([C@H](C)c3nnc4c(F)cc(-c5cnn(C)c5)cn34)c(=O)c2c1
[1]
  GI50: > 100 µM
  TGI: > 100 µM
[2]
  GI50: > 100 µM
  TGI: > 100 µM
[3]
  GI50: > 100 µM
  TGI: > 100 µM
[4]
  GI50: > 100 µM
  TGI: > 100 µM
[5]
  GI50: > 100 µM
  TGI: > 100 µM
[6]
  GI50: > 100 µM
  TGI: > 100 µM
[7]
  GI50: > 100 µM
  TGI: > 100 µM
[8]
  GI50: > 100 µM
  TGI: > 100 µM
[9]
  GI50: > 100 µM
  TGI: > 100 µM
[10]
  GI50: > 100 µM
  TGI: > 100 µM
[11]
  GI50: > 100 µM
  TGI: > 100 µM
[12]
  GI50: > 100 µM
  TGI: > 100 µM
[13]
  GI50: > 100 µM
  TGI: > 100 µM
[14]
  GI50: > 100 µM
  TGI: > 100 µM
[15]
  GI50: > 100 µM
  TGI: > 100 µM
[16]
  GI50: > 100 µM
  TGI: > 100 µM
[17]
  GI50: > 100 µM
  TGI: > 100 µM
[18]
  GI50: > 100 µM
  TGI: > 100 µM
[19]
  GI50: > 100 µM
  TGI: > 100 µM
[20]
  GI50: > 100 µM
  TGI: > 100 µM
[21]
  GI50: > 100 µM
  TGI: > 100 µM
[22]
  GI50: > 100 µM
  TGI: > 100 µM
[23]
  GI50: > 100 µM
  TGI: > 100 µM
[24]
  GI50: 60.2 µM
  TGI: > 100 µM
[25]
  GI50: > 100 µM
  TGI: > 100 µM
[26]
  GI50: > 100 µM
  TGI: > 100 µM
[27]
  GI50: > 100 µM
  TGI: > 100 µM
[28]
  GI50: > 100 µM
  TGI: > 100 µM
[29]
  GI50: > 100 µM
  TGI: > 100 µM
[30]
  GI50: > 100 µM
  TGI: > 100 µM
[31]
  GI50: > 100 µM
  TGI: > 100 µM
[32]
  GI50: > 100 µM
  TGI: > 100 µM
[33]
  GI50: > 100 µM
  TGI: > 100 µM
[34]
  GI50: > 100 µM
  TGI: > 100 µM
[35]
  GI50: 98 µM
  TGI: > 100 µM
[36]
  GI50: > 100 µM
  TGI: > 100 µM
[37]
  GI50: > 100 µM
  TGI: > 100 µM
[38]
  GI50: 58.1 µM
  TGI: > 100 µM
[39]
  GI50: > 100 µM
  TGI: > 100 µM
[40]
  GI50: > 100 µM
  TGI: > 100 µM
[41]
  GI50: > 100 µM
  TGI: > 100 µM
[42]
  GI50: > 56.9 µM
  TGI: > 100 µM
[43]
  GI50: > 100 µM
  TGI: > 100 µM
[44]
  GI50: > 100 µM
  TGI: > 100 µM
[45]
  GI50: > 100 µM
  TGI: > 100 µM
[46]
  GI50: 85.2 µM
  TGI: > 100 µM
[47]
  GI50: > 100 µM
  TGI: > 100 µM
